The values below are quoted from earlier work in US20260263382A1, “TRANSDERMAL PATCH COMPRISING RASAGILINE MESYLATE AND PREPARATION METHOD THEREFOR” (priority 2023, published 2026).

Counter-ions that a name gives are not always drawn. Like-named read-outs stand apart in the source and are kept apart here.

The conditions of series [1]: carried in polyacrylate or silicone pressure-sensitive adhesives or polyvinyl alcohol, free base under weakly alkaline conditions.
The conditions of series [2]: oral preparations.
The conditions of series [3]: oral administration at 20 mg/d for 2 weeks.

Turning to `C#CCN[C@@H]1CCc2ccccc21` [rasagiline mesylate], the Main drug content result in series [1] is recorded as “no change”.

As to `C#CCN[C@@H]1CCc2ccccc21` [Rasagiline], the Bioavailability in series [2] was 36%. The Adverse reaction entry in series [3] is “no serious adverse reaction”. Moreover, in series [1] (listed as rasagiline free base), the Main drug content entry is “declines rapidly, even with complete degradation”.
